Measurements taken from the supplement of paper PMC10331698.
± gives the standard deviation of the averaged measurements.

Columns and labels:
Experiment in all cases: level (log10 ratio to DMSO vehicle control); higher = higher biomarker level / cell amount than vehicle control
[1] = compound: C=CC(=O)OCCC(F)(F)C(F)(F)C(F)(F)C(F)(F)C(F)(F)C(F)(F)C(F)(F)C(F)(F)F [8:2 Fluorotelomer acrylate]; conditions: in DMSO
Protocol: (§1)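 BioMAP Diversity Plus panel of 12 human primary cell co-culture systems (3C, 4H, LPS, SAg, BT, BF4T, BE3C, CASM3C, HDF3CGF, KF3CT, MyoF, Mphg). Compounds were added 1 h before stimulation and left for 24 h (MyoF 48 h; BT 72 h for soluble read-outs or 6 d for IgG). Biomarkers were read by ELISA, cytotoxicity by SRB, PBMC viability and proliferation by Alamar Blue. Each well value was divided by the mean of 8 DMSO control wells on the same plate and log10 transformed; duplicate blinded samples were tested at 4 concentrations.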

Methotrexate = compound: CN(Cc1cnc2nc(N)nc(N)c2n1)c1ccc(C(=O)N[C@@H](CCC(=O)O)C(=O)O)cc1 [Methotrexate]; conditions: in DMSO
Protocol: as §1

[2] = compound: FC(F)(I)C(F)(F)C(F)(F)C(F)(F)C(F)(F)C(F)(F)I [1,6-Diiodoperfluorohexane]; conditions: 6700 nM; in DMSO
Protocol: as §1

[3] = compound: O=C(O)C(F)(F)C(F)(F)C(F)(F)C(F)(F)C(F)(F)C(F)(F)C(F)(F)F [Ammonium perfluorooctanoate]; conditions: in DMSO
Protocol: as §1

Perfluorooctanoic acid = compound: O=C(O)C(F)(F)C(F)(F)C(F)(F)C(F)(F)C(F)(F)C(F)(F)C(F)(F)F [Perfluorooctanoic acid]; conditions: in DMSO
Protocol: as §1

[4] = compound: O=S(=O)(O)CCC(F)(F)C(F)(F)C(F)(F)C(F)(F)F [4:2 Fluorotelomer sulfonic acid]; conditions: in DMSO
Protocol: as §1

[5] = compound: OCCCCC(F)(F)C(F)(F)C(F)(F)C(F)(F)F [4:4 Fluorotelomer alcohol]; conditions: in DMSO
Protocol: as §1

Row | Test System | level (log10) ([1]; 6700 nM) | level (log10) ([1]; 20000 nM) | level (log10) ([1]; 60000 nM) | level (log10) (Methotrexate; 1500 nM) | level (log10) (Methotrexate; 4400 nM) | level (log10) (Methotrexate; 13000 nM) | level (log10) (Methotrexate; 40000 nM) | level (log10) [2] | level (log10) ([3]; 6700 nM) | level (log10) ([3]; 20000 nM) | level (log10) ([3]; 60000 nM) | level (log10) (Perfluorooctanoic acid; 6700 nM) | level (log10) (Perfluorooctanoic acid; 20000 nM) | level (log10) (Perfluorooctanoic acid; 60000 nM) | level (log10) ([4]; 6700 nM) | level (log10) ([4]; 20000 nM) | level (log10) ([4]; 60000 nM) | level (log10) ([5]; 6700 nM) | level (log10) ([5]; 20000 nM) | level (log10) ([5]; 60000 nM)
1 | 3C:CD141/Thrombomodulin | -0.0015 ± 0.036 | -0.0295 ± 0.0035 | 0.023 ± 0.072 | -0.024 ± 0.0085 | -0.016 ± 0.0057 | -0.0235 ± 0.067 | -0.0265 ± 0.019 | -0.003 | -0.01 ± 0.017 | -0.0185 ± 0.012 | -0.0375 ± 0.032 | 0.023 ± 0.065 | -0.011 ± 0.081 | -0.0115 ± 0.039 | -0.014 ± 0.0028 | -0.005 ± 0.013 | -0.013 ± 0.044 | -0.0225 ± 0.035 | -0.0265 ± 0.067 | -0.007 ± 0.076
2 | MyoF:Collagen I | -0.0095 ± 0.005 | -0.0205 ± 0.015 | 0.011 ± 0.0099 | -0.0115 ± 0.049 | -0.01 ± 0.059 | 0.01 ± 0.035 | 0.004 ± 0.038 | -0.444 | -0.006 ± 0.0014 | 0.0025 ± 0.013 | -0.0125 ± 0.015 | -0.0065 ± 0.0092 | -0.0035 ± 0.036 | -0.034 ± 0.017 | 0.004 ± 0.013 | -0.0155 ± 0.015 | 0.018 | 0.004 ± 0.0014 | -0.002 ± 0.016 | 0.0065 ± 0.026
3 | MyoF:MMP-1 | -0.0295 ± 0.0092 | -0.06 ± 0.071 | 0.0075 ± 0.098 | 0.002 ± 0.027 | -0.017 ± 0.02 | -0.004 ± 0.018 | 0.0175 ± 0.0021 | 0.469 | -0.029 ± 0.016 | -0.0145 ± 0.019 | 0.0415 ± 0.013 | -0.032 | -0.018 ± 0.038 | 0.043 ± 0.086 | -0.022 | -0.05 ± 0.0057 | -0.005 ± 0.047 | 0.002 ± 0.0057 | 0.007 ± 0.023 | 0.032 ± 0.076
4 | HDF3CGF:TIMP-1 | -0.03 ± 0.02 | -0.0265 ± 0.022 | -0.011 ± 0.061 | -0.08 ± 0.073 | -0.047 ± 0.082 | -0.0525 ± 0.14 | -0.0755 ± 0.1 | -0.077 | 0.013 ± 0.0028 | 0.0065 ± 0.016 | 0.008 ± 0.02 | -0.015 ± 0.034 | -0.029 ± 0.0099 | 0.0155 ± 0.00071 | -0.0045 ± 0.047 | -0.0015 ± 0.00071 | 0.0035 ± 0.084 | -0.006 ± 0.017 | -0.001 ± 0.034 | 0.02 ± 0.057
